Assay results reported in patent publication US6534524B1, “Indazole compounds and pharmaceutical compositions for inhibiting protein kinases, and methods for their use” (Agouron Pharmaceuticals, Inc., priority 1999, dated 2003).
Like-named read-outs stand apart in the source and are kept apart here. Blank lines part the entries; values can stand above or below the compound they belong to.

Assays:
human CHK1 (FL-CHK1) = target: T1, human CHK1 (FL-CHK1) (Homo sapiens, UniProt O14757); experiment: CHK1 assay (coupled spectrophotometric, Syntide-2); format: biochemical; conditions: for CHK-1 @ 20 μM: Table 4, compound at 20 μM; for Ki: read-out: CHK-1 Ki
T1 construct: C-terminally His-tagged full-length human CHK1 (FL-CHK1); made in house; host or cells: baculovirus/insect cell system
T1 sequence (O14757 1-476): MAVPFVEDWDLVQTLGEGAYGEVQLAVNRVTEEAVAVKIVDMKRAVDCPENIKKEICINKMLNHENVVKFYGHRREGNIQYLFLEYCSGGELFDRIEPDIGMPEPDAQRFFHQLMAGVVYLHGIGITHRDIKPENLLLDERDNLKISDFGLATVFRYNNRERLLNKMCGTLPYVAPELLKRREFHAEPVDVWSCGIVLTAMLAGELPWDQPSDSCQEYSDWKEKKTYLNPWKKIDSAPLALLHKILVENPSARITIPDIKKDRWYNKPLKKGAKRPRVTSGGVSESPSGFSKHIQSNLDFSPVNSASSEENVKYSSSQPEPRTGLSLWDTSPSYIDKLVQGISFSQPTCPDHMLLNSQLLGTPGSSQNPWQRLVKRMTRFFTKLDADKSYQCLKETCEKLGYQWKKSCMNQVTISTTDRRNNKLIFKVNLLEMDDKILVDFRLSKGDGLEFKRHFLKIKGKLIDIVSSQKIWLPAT
From the text: CHK1 Construct for Assay: C-terminally His-tagged full-length human CHK1 (FL-CHK1) was expressed using the baculovirus/insect cell system. […] The protein was purified by conventional chromatographic techniques.
The production of ADP from ATP that accompanies phosphoryl transfer to the synthetic substrate peptide Syntide-2 ([…]) was coupled to oxidation of NADH using phosphoenolpyruvate (PEP) through the actions of pyruvate kinase (PK) and lactic dehydrogenase (LDH). The oxidation of NADH was monitored by following the decrease of absorbance at 340 nm (ε340=6.22 cm^−1 mM^−1) using a HP8452 spectrophotometer. […] Assays were initiated with 10 nM of FL-CHK1. Ki values were determined by measuring initial enzyme activity in the presence of varying concentrations of test compounds. The data were analyzed using Enzyme Kinetic and Kaleidagraph software.

[1] = Human liver microsome (HLM) assay; format: in vitro ADME; conditions: human liver microsomes, 5 μM test compound
Procedure, shortened: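 Compound metabolism in human liver microsomes measured in triplicate. Samples at 0 and 2 h centrifuged at 14000 g for 10 min and analysed by LC-MS.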

[2] = Determination of inhibitor concentration in mouse plasma after intraperitoneal and oral dosing; format: in vivo
Procedure, shortened: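 Mice dosed intraperitoneally or orally; blood taken by ocular bleed at 0.5, 1 and 4 h and by intracardiac puncture at 7 h. Plasma extracted with ethyl acetate after internal standard and NaOH addition, analysed by HPLC or LC-MS against a mouse-plasma standard curve.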

[3] = target: unphosphorylated VEGF-R2Δ50 (FLVK) (Homo sapiens, UniProt P35968, DEL940-989/E990V); experiment: VEGF-R2 coupled spectrophotometric assay, unphosphorylated VEGF-R2Δ50 (FLVK); conditions: FLVK Ki, Table 1
Chain of unphosphorylated VEGF-R2Δ50 (FLVK) (P35968 with tags, fused parts or gaps DEL940-989/E990V limits assumed): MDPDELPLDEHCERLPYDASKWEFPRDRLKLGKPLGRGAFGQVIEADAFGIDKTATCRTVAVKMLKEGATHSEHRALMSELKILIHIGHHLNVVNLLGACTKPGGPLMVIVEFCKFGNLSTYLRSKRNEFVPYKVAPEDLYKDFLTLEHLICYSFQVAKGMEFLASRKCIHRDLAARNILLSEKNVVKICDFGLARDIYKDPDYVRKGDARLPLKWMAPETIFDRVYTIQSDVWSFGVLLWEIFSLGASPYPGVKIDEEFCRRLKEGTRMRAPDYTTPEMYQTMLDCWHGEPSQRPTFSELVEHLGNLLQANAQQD

[4] = IP, 25 mg/kg, vehicle PEG400:H2O pH 2.3 30:70
[5] = PO, 50 mg/kg, vehicle PEG400:H2O pH 2.3 30:70
[6] = female, IP, 25 mg/kg, vehicle PEG400:H2O pH 2.3 30:70, read-out: Cmin (7 hr conc.)
[7] = female, PO, 50 mg/kg, vehicle PEG400:H2O pH 2.3 30:70, read-out: Cmin (7 hr conc.)
[8] = female, IP, 25 mg/kg, vehicle PEG400:H2O pH 2.3 30:70
[9] = IP, 25 mg/kg, vehicle PEG400:H2O pH 2.3 60:40
[10] = PO, 50 mg/kg, vehicle PEG400:H2O pH 2.3 60:40
[11] = female, IP, 25 mg/kg, vehicle PEG400:H2O pH 2.3 60:40, read-out: Cmin (7 hr conc.)
[12] = female, PO, 50 mg/kg, vehicle PEG400:H2O pH 2.3 60:40, read-out: Cmin (7 hr conc.)

Compound: O=C(Nc1cc[nH]n1)c1ccc2c(-c3nc4ccccc4[nH]3)n[nH]c2c1
CHK-1 @ 20 μM (human CHK1 (FL-CHK1)): 52.4

CHK-1 @ 20 μM (human CHK1 (FL-CHK1)): 38.6
Compound: O=C(Nc1cc(O)[nH]n1)c1ccc2c(-c3nc4ccccc4[nH]3)n[nH]c2c1

Compound: Cc1nc(/C=C/c2n[nH]c3cc(-c4ccncc4)ccc23)cs1 [29(j), 6-Pyrid-4-yl-3-E-[2-(2-methylthiazol-4-yl)ethenyl]-1H-indazole]
Ki (human CHK1 (FL-CHK1); Table 3): 533 nM

Compound: O=C(c1ccccc1)c1ccc2c(/C=C/c3ccccc3)n[nH]c2c1 [Example 17, Phenyl-(3-styryl-1H-indazol-6-yl)-methanone]
Ki (human CHK1 (FL-CHK1); Table 1): 532 nM

Compound: C(=C\c1n[nH]c2cc(-c3cccc4[nH]ccc34)ccc12)/c1ccccc1 [Example 27(g), 6-Indol-4-yl-3-E-styryl-1H-indazole]
Ki (human CHK1 (FL-CHK1); Table 3): 850 nM

Compound: COc1ccc(-c2ccc3c(/C=C/c4ccccc4)n[nH]c3c2)cn1 [Example 27(k), 6-(2-Methoxypyridin-5-yl)-3-E-styryl-1H-indazole]
Ki (human CHK1 (FL-CHK1); Table 3): 24000 nM

Compound: Oc1ccc(-c2ccc3c(/C=C/c4ccccc4)n[nH]c3c2)cc1 [Example 28(b)]
Ki (human CHK1 (FL-CHK1); Table 3): 14.3 nM

Compound: Oc1ccc(-c2ccc3c(/C=C/c4ccccc4)n[nH]c3c2)cc1O [Example 28(d), 6-(3,4-Dihydroxyphenyl)-3-E-styryl-1H-indazole]
Ki (human CHK1 (FL-CHK1); Table 3): 18 nM

Compound: C(=C\c1n[nH]c2cc(-c3ccncc3)ccc12)/c1ccc(-c2ccccc2)cc1 [Example 29(d), 6-Pyrid-4-yl-3-E-[2-(biphenyl-4-yl)ethenyl]-1H-indazole]
Ki (human CHK1 (FL-CHK1); Table 3): 10000 nM

Compound: C(=C\c1n[nH]c2cc(-c3ccncc3)ccc12)/c1ccc2ccccc2c1 [Example 29(k), 6-Pyrid-4-yl-3-E-[2-(naphthalen-2-yl)ethenyl]-1H-indazole]
Ki (human CHK1 (FL-CHK1); Table 3): 1300 nM

Compound: Fc1cc(F)cc(/C=C/c2n[nH]c3cc(-c4ccncc4)ccc23)c1 [Example 29(m), 6-Pyrid-4-yl-3-E-[2-(3,5-difluorophenyl)ethenyl]-1H-indazole]
Ki (human CHK1 (FL-CHK1); Table 3): 1000 nM

Compound: C(=C\c1n[nH]c2cc(-c3ccncc3)ccc12)/c1cccc(-c2ccccc2)c1 [Example 29(n), 6-Pyrid-4-yl-3-E-[2-(biphenyl-3-yl)ethenyl]-1H-indazole]
Ki (human CHK1 (FL-CHK1); Table 3): 16000 nM

Compound: Fc1cccc(F)c1/C=C/c1n[nH]c2cc(-c3ccncc3)ccc12 [Example 29(o), 6-Pyrid-4-yl-3-E-[2-(2,6-difluorophenyl)ethenyl]-1H-indazole]
Ki (human CHK1 (FL-CHK1); Table 3): 46000 nM

Compound: C(=C\c1n[nH]c2cc(-c3ccncc3)ccc12)/c1nc2ccccc2[nH]1 [Example 29(q), 6-Pyrid-4-yl-3-E-[2-(4-benzimidazol-2-yl)ethenyl]-1H-indazole]
Ki (human CHK1 (FL-CHK1); Table 3): 11000 nM

Compound: C(=C\c1n[nH]c2cc(-c3ccncc3)ccc12)/c1ccc[nH]1 [Example 29(t), 6-Pyrid-4-yl-3-E-[2-(1H-pyrrol-2-yl)ethenyl]-1H-indazole]
Ki (human CHK1 (FL-CHK1); Table 3): 72 nM

Compound: O=C(NCC(F)(F)F)c1ccccc1Sc1ccc2c(/C=C/c3ccccn3)n[nH]c2c1 [Example 33(f), 6-[2-(2,2,2-Trifluoroethylcarbamoyl)phenylsulfanyl]-3-E-[2-(pyridin-2-yl)ethenyl]-1H-indazole]
% remain (HLM, 2 h) [1]: 31%
AUClast [2, 4]: 1887 ng·h/mL
plasma half-life (T1/2) [2, 4]: 2.4 h
AUClast [2, 5]: 1436 ng·h/mL
plasma half-life (T1/2) [2, 5]: 0.7 h
concentration at 7 h [2, 6]: 6 ng/mL
concentration at 7 h [2, 7]: 3 ng/mL
Ki [3]: 8 nM

Compound: O=C(NCc1cccc(F)c1)c1ccccc1Sc1ccc2c(/C=C/c3ccccn3)n[nH]c2c1 [Example 35(ff)]
% remain (HLM, 2 h) [1]: 31%
AUC(0-t) [2, 8]: > 6300 ng·h/mL
Cmax ([2]; female, IP, 25 mg/kg, vehicle PEG400:H2O pH 2.3 30:70, read-out: Cmax): > 4000 ng/mL
concentration at 7 h [2, 6]: 72 ng/mL
Ki [3]: 0.11 nM

Compound: CC(=O)c1ccc(C(=O)Nc2cccc(C(=O)c3ccc4c(/C=C/c5ccccn5)n[nH]c4c3)c2)s1 [Example 41(e), 6-[3-((5-Acetylthien-2-yl)carboxamido)benzoyl]-3-E-[2-(pyridin-2-yl)ethenyl]-1H-indazole]
% remain (HLM, 2 h) [1]: 22%
AUClast [2, 9]: 4900 ng·h/mL
Cmax [2, 9]: 1154 ng/mL
plasma half-life (T1/2) [2, 9]: 1.6 h
AUClast [2, 10]: 302 ng·h/mL
Cmax [2, 10]: 113 ng/mL
plasma half-life (T1/2) [2, 10]: 1.6 h
concentration at 7 h [2, 11]: 301 ng/mL
concentration at 7 h [2, 12]: 7 ng/mL
Ki [3]: 0.22 nM

Compound: Cc1cc(C(=O)Nc2cccc(C(=O)c3ccc4c(/C=C/c5ccccn5)n[nH]c4c3)c2)n[nH]1 [Example 41(g), 6-[3-((5-Methyl-1H-pyrazol-3-yl)carboxamido)benzoyl]-3-E-[2-(pyridin-2-yl)ethenyl]-1H-indazole]
% remain (HLM, 2 h) [1]: 52%
AUClast [2, 9]: 1925 ng·h/mL
plasma half-life (T1/2) [2, 9]: 0.3 h
AUClast [2, 10]: 508 ng·h/mL
plasma half-life (T1/2) [2, 10]: 0.7 h
concentration at 7 h [2, 11]: 0 ng/mL
concentration at 7 h [2, 12]: 1 ng/mL
Ki [3]: 0.1 nM

Compound: Cc1cc(C(=O)Nc2cccc(C(=O)c3ccc4c(/C=C/c5ccccn5)n[nH]c4c3)c2)on1 [Example 41(m), 6-[3-((3-Methylisoxazol-5-yl)carboxamido)benzoyl]-3-E-[2-(pyridin-2-yl)ethenyl]-1H-indazole]
% remain (HLM, 2 h) [1]: 0%
AUClast [2, 4]: 1864 ng·h/mL
plasma half-life (T1/2) [2, 4]: 2.3 h
AUClast [2, 5]: 9 ng·h/mL
Cmax [2, 5]: 5 ng/mL
plasma half-life (T1/2) [2, 5]: blq
Ki [3]: 0.75 nM

Compound: O=C(c1cccc(NC(=O)c2ccc(Cl)s2)c1)c1ccc2c(/C=C/c3ccccn3)n[nH]c2c1 [Example 41(o), 6-[3-((5-Chlorothien-2-yl)carboxamido)benzoyl]-3-E-[2-(pyridin-2-yl)ethenyl]-1H-indazole]
% remain (HLM, 2 h) [1]: 94%
AUClast [2, 5]: 14717 ng·h/mL
plasma half-life (T1/2) [2, 5]: 1.7 h
AUC(0-t) [2, 8]: > 33800 ng·h/mL
concentration at 7 h [2, 6]: > 5000 ng/mL
concentration at 7 h [2, 7]: 427 ng/mL
Ki [3]: 0.05 nM

Compound: C=CCn1nc(C)cc1C(=O)Nc1cccc(C(=O)c2ccc3c(/C=C/c4ccccn4)n[nH]c3c2)c1 [Example 41(t), 6-[3-((1-Allyl-3-methyl-1H-pyrazol-5-yl)carboxamido)benzoyl]-3-E-[2-(pyridin-2-yl)ethenyl]-1H-indazole]
% remain (HLM, 2 h) [1]: 87%
plasma half-life (T1/2) ([2]; PO, 25 mg/kg, vehicle PEG400:H2O pH 2.3 30:70): 4.0 h
AUC(0-t) ([2]; female, PO, 25 mg/kg, vehicle PEG400:H2O pH 2.3 30:70): > 22500 ng·h/mL
concentration at 7 h ([2]; female, PO, 25 mg/kg, vehicle PEG400:H2O pH 2.3 30:70, read-out: Cmin (7 hr conc.)): 1350 ng/mL
Ki [3]: 0.06 nM

Compound: O=C(Nc1cccc(C(=O)c2ccc3c(-c4nc5ccccc5[nH]4)n[nH]c3c2)c1)c1ccccc1 [Example 42(b), 6-(3-Benzamidobenzoyl)-3-(1H-benzoimidazol-2-yl)-1H-indazole]
% remain (HLM, 2 h) [1]: 81%
AUClast [2, 9]: 3207 ng·h/mL
plasma half-life (T1/2) [2, 9]: 3.0 h
AUClast [2, 10]: 4747 ng·h/mL
plasma half-life (T1/2) [2, 10]: 3.0 h
concentration at 7 h [2, 11]: 211 ng/mL
concentration at 7 h [2, 12]: 46 ng/mL
Ki [3]: 0.35 nM

Compound: O=C(NC1CC1)c1ccc2c(-c3nc4ccccc4[nH]3)n[nH]c2c1 [Example 53(b), 3-(1H-Benzoimidazol-2-yl)-N-cyclopropyl-1H-indazole-6-carboxamide]
Ki (human CHK1 (FL-CHK1); Table 3): 1400 nM

Compound: O=C(NOCc1ccccc1)c1ccc2c(-c3nc4ccccc4[nH]3)n[nH]c2c1 [Example 53(f), 3-(1H-Benzoimidazol-2-yl)-N-benzyloxy-1H-indazole-6-carboxamide]
Ki (human CHK1 (FL-CHK1); Table 3): 7300 nM

Ki (human CHK1 (FL-CHK1); Table 3): 1500 nM
Compound: O=C(Nc1ccc(O)c(F)c1)c1ccc2c(-c3nc4ccccc4[nH]3)n[nH]c2c1 [Example 53(g), 3-(1H-Benzoimidazol-2-yl)-N-(3-fluoro-4-hydroxyphenyl)-1H-indazole-6-carboxamide]
